Measured values reported in patent US11999727B2 (Tango Therapeutics, Inc., priority 2020, dated 2024).

What was measured:
[1] = test system: HAP1 MTAP-deleted cell line; test: SDMA in-cell western assay, HAP1 MTAP-deleted; assay type: cell-based; conditions: for IC50: Homo sapiens, HAP1, SDMA in-cell western, HAP1 MTAP-deleted, read-out: HAP 1 MTAP deleted IC50; for MTAP intact/deleted ratio: IC50 ratio HAP1 MTAP-intact / HAP1 MTAP-deleted, SDMA in-cell western
In short: (§1)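 Isogenic HAP1 pair: the MTAP-intact line expresses endogenous MTAP, and the deleted line is MTAP-null. Symmetric dimethylarginine was detected by in-cell western and IC50 values derived for each line.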

[2] = test system: HAP1 MTAP-intact cell line; test: SDMA in-cell western assay, HAP1 MTAP-intact; assay type: cell-based; conditions: Homo sapiens, HAP1, SDMA in-cell western, HAP1 MTAP-intact; read-out: MTAP HAP1 intact IC50
In short: as §1

PRMT5 [3] = target: T1, PRMT5 (Homo sapiens, UniProt O14744); test: PRMT5 biochemical IC50 assay with no cofactor; conditions: PRMT5, no cofactor; read-out: No Cofactor/ rel IC50
T1 construct: purchased Viva (custom protein)
From the text: Table 1 indicates IC50 values (μM) against PRMT5 for exemplary compounds in the presence of SAM as cofactor, with no cofactor, and with MTA as cofactor, respectively (columns 4-6). […] Ki values can be calculated from the IC50 values as described in the Examples section. As detailed in the Examples section, for the assay performed in the presence of SAM, IC50=Ki×1.5 (Ki=IC50/1.5).

[4] = test system: HAP1 MTAP-deleted cell line; test: Viability assay, MTAP-deleted cell line; assay type: cell-based; conditions: Homo sapiens, HAP1, viability, HAP1 MTAP-deleted cell line; read-out: HAP1 MTAP deleted viability
From the text: Table 1 additionally indicates IC50 values in a viability assay for the MTAP-deleted cell line (column 10), indicating the effect of treatment with compound on cell survival.

PRMT5 [5] = target: T1, PRMT5; test: PRMT5 biochemical IC50 assay with SAM as cofactor; conditions: PRMT5, SAM as cofactor; read-out: SAM IC50
PRMT5 [6] = target: T1, PRMT5; test: PRMT5 biochemical IC50 assay with MTA as cofactor; conditions: PRMT5, MTA as cofactor; read-out: MTA IC50

T1 sequence (O14744 whole entry): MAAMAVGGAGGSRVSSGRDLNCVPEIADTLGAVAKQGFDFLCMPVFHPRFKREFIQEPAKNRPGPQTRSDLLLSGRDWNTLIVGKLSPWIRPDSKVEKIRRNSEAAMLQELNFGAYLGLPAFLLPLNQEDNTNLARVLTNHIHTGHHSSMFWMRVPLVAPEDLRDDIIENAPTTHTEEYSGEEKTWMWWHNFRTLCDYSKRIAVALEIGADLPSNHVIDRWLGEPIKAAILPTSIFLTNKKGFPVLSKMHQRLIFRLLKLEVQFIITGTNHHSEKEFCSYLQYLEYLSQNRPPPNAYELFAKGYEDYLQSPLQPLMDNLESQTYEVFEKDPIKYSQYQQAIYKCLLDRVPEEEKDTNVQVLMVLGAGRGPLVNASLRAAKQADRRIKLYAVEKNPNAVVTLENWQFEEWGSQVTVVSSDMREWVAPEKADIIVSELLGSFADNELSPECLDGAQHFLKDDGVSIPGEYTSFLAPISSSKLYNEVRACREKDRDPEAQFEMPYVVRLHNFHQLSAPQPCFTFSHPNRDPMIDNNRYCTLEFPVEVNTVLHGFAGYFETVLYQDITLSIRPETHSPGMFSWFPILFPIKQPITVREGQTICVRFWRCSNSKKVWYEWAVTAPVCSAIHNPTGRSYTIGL
T1 sequence (Q9BQA1 whole entry partner): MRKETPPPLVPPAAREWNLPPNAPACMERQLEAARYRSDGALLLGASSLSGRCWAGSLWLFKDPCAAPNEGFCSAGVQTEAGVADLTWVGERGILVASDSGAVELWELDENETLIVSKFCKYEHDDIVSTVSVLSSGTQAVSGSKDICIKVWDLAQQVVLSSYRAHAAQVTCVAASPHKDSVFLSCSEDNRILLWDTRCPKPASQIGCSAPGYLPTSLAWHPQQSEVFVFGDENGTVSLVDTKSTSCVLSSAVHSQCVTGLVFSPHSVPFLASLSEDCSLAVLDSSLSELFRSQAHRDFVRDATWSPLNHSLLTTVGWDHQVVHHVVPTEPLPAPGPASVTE

Compound | IC50 [1] | MTAP intact/deleted ratio [1] | IC50 [2] | IC50 (PRMT5 [3]) | IC50 [4] | IC50 (PRMT5 [5]) | IC50 (PRMT5 [6])
CCc1cc(NC(=O)C(=O)N2C[C@@H](C)CC[C@@H]2c2cccc(OCC3CCN(C)CC3)c2)cnc1N [Compound 1348, N-(6-amino-5-ethylpyridin-3-yl)-2-((2R,5S)-5-methyl-2-(3-((1-methylpiperidin-4-yl)methoxy)phenyl)piperidin-1-yl)-2-oxoacetamide] | < 100 nM | A (an IC50 ratio greater than or equal to 10 fold) | < 100 nM | < 50 nM | < 1000 nM | < 50 nM | < 50 nM
COc1ncc(NC(=O)C(=O)N2C[C@@H](C)CC[C@@H]2c2cccc(OCCN(C)C)c2)cc1C(N)=O [Compound 1352, 5-(2-((2R,5S)-2-(3-(2-(dimethylamino)ethoxy)phenyl)-5-methylpiperidin-1-yl)-2-oxoacetamido)-2-methoxynicotinamide] | < 100 nM | – | > 1000 nM | < 50 nM | < 1000 nM | < 50 nM | < 50 nM
C[C@H]1CC[C@H](c2ccc3sc(CN(C)C)nc3c2)N(C(=O)C(=O)Nc2cnc(N)c(C3CC3)c2)C1 [Compound 1354, N-(6-Amino-5-cyclopropyl-3-pyridyl)-2-[(2R,5S)-2-[2-[(dimethylamino)methyl]-1,3-benzothiazol-5-yl]-5-methyl-1-piperidyl]-2-oxo-acetamide] | < 100 nM | A (an IC50 ratio greater than or equal to 10 fold) | < 100 nM | < 50 nM | < 1000 nM | 50 to 500 nM | < 50 nM
COc1ncc(NC(=O)C(=O)N2C[C@@H](C)CC[C@@H]2c2ccc3sc([C@H]4CCCN(C)C4)nc3c2)cc1C(N)=O [Compound 1359, 2-methoxy-5-(2-((2R,5S)-5-methyl-2-(2-((S)-1-methylpiperidin-3-yl)benzo[d]thiazol-5-yl)piperidin-1-yl)-2-oxoacetamido)nicotinamide] | < 100 nM | A (an IC50 ratio greater than or equal to 10 fold) | < 100 nM | < 50 nM | < 1000 nM | < 50 nM | < 50 nM
CCc1cc(NC(=O)C(=O)N2C[C@@H](C)CC[C@@H]2c2cccc(OC[C@@H]3CCCN3C)c2)cnc1N [Compound 1362, N-(6-amino-5-ethylpyridin-3-yl)-2-((2R,5S)-5-methyl-2-(3-((1-methylpyrrolidin-2-yl)methoxy)phenyl)piperidin-1-yl)-2-oxoacetamide] | < 100 nM | A (an IC50 ratio greater than or equal to 10 fold) | 100 to 1000 nM | < 50 nM | < 1000 nM | 50 to 500 nM | < 50 nM
CCc1cc(NC(=O)C(=O)N2C[C@@H](C)CC[C@@H]2c2cccc(C3CCN(C)CC3)c2)cnc1N [Compound 1363, N-(6-Amino-5-ethyl-3-pyridyl)-2-oxo-2-[(2R,5S)-5-methyl-2-[3-(1-methyl-4-piperidyl)phenyl]-1-piperidyl]acetamide] | < 100 nM | A (an IC50 ratio greater than or equal to 10 fold) | 100 to 1000 nM | < 50 nM | < 1000 nM | < 50 nM | < 50 nM
CCc1cc(NC(=O)C(=O)N2C[C@@H](C)CC[C@@H]2c2ccc3ccc(C4CCN(C)CC4)nc3c2)cnc1N [Compound 1365, N-(6-amino-5-ethyl-3-pyridyl)-2-oxo-2-[(2R,5S)-5-methyl-2-[2-(1-methyl-4-piperidyl)-7-quinolyl]-1-piperidyl]acetamide] | < 100 nM | A (an IC50 ratio greater than or equal to 10 fold) | < 100 nM | < 50 nM | < 1000 nM | 50 to 500 nM | < 50 nM
CCc1cc(NC(=O)C(=O)N2C[C@@H](C)CC[C@@H]2c2ccc3sc([C@@H]4[C@@H]5CN(C)C[C@@H]54)nc3c2)cnc1N [Compound 1366, N-(6-amino-5-ethylpyridin-3-yl)-2-((2R,5S)-5-methyl-2-(2-((1R,5S,6s)-3-methyl-3-azabicyclo[3.1.0]hexan-6-yl)benzo[d]thiazol-5-yl)piperidin-1-yl)-2-oxoacetamide] | < 100 nM | A (an IC50 ratio greater than or equal to 10 fold) | < 100 nM | < 50 nM | < 1000 nM | < 50 nM | < 50 nM
CCc1cc(NC(=O)C(=O)N2C[C@@H](C)CC[C@@H]2c2cccc(N3CCN(C)CC3)c2)cnc1N [Compound 1367, N-(6-amino-5-ethylpyridin-3-yl)-2-((2R,5S)-5-methyl-2-(3-(4-methylpiperazin-1-yl)phenyl)piperidin-1-yl)-2-oxoacetamide] | < 100 nM | A (an IC50 ratio greater than or equal to 10 fold) | 100 to 1000 nM | < 50 nM | < 1000 nM | < 50 nM | < 50 nM
CCc1cc(NC(=O)C(=O)N2C[C@@H](C)CC[C@@H]2c2ccc3cc(C)c(C4CCN(C)CC4)nc3c2)cnc1N [Compound 1368, N-(6-amino-5-ethyl-3-pyridyl)-2-oxo-2-[(2R,5S)-5-methyl-2-[3-methyl-2-(1-methyl-4-piperidyl)-7-quinolyl]-1-piperidyl]acetamide] | < 100 nM | A (an IC50 ratio greater than or equal to 10 fold) | < 100 nM | < 50 nM | < 1000 nM | 50 to 500 nM | < 50 nM
CCc1cc(NC(=O)C(=O)N2C[C@@H](C)CC[C@@H]2c2ccc3sc(C45CC(C4)N(C)C5)nc3c2)cnc1N [Compound 1372] | < 100 nM | A (an IC50 ratio greater than or equal to 10 fold) | < 100 nM | < 50 nM | < 1000 nM | < 50 nM | < 50 nM
Cc1cc(NC(=O)C(=O)N2C[C@@H](C)CC[C@@H]2c2ccc3sc(C4CCN(CC(F)F)CC4)nc3c2)cnc1N [Compound 1377, N-(6-amino-5-methylpyridin-3-yl)-2-((2R,5S)-2-(2-(1-(2,2-difluoroethyl)piperidin-4-yl)benzo[d]thiazol-5-yl)-5-methylpiperidin-1-yl)-2-oxoacetamide] | < 100 nM | A (an IC50 ratio greater than or equal to 10 fold) | 100 to 1000 nM | < 50 nM | < 1000 nM | 50 to 500 nM | < 50 nM
C[C@H]1CC[C@H](c2ccc3sc(CCN4CCCC4)nc3c2)N(C(=O)C(=O)Nc2cnc(N)c(C3COC3)c2)C1 [Compound 1379, N-(6-amino-5-(oxetan-3-yl)pyridin-3-yl)-2-((2R,5S)-5-methyl-2-(2-(2-(pyrrolidin-1-yl)ethyl)benzo[d]thiazol-5-yl)piperidin-1-yl)-2-oxoacetamide] | < 100 nM | A (an IC50 ratio greater than or equal to 10 fold) | < 100 nM | 50 to 500 nM | < 1000 nM | 50 to 500 nM | < 50 nM
